A value given as a limit tells only on which side of the number the result lay.

In the first data set the test system is SW-620. The data set can be described thus: Antiproliferative activity against human SW620 cells assessed as reduction in cell viability incubated for 72 hrs by MTT assay. Type of data set: functional, cell-based. Particulars: SW-620, 72 h.
For the compound `COc1cc(NC(C)CCCn2cc(-c3cc4c([nH]c5ccccc54)c(C)n3)nn2)c2ncccc2c1` (stereo not given), the IC50 was found to be 15.8 µM.

Turning to `COc1cc(NC(C)CCCn2cc(-c3nccc4c3[nH]c3ccccc34)nn2)c2ncccc2c1` (stereo not given), the IC50 was determined as 14.1 µM.

On to `COc1cc(NC(C)CCCn2cc(COc3ccc4c(c3)[nH]c3c(C)nccc34)nn2)c2ncccc2c1` (stereo not given), for which the half-maximal inhibitory concentration (IC50) is 6.99 µM.

Another data set deals with HepG2. Nature of the data set: Antiproliferative activity against human HepG2 cells assessed as reduction in cell viability incubated for 72 hrs by MTT assay. Particulars: HepG2, 72 h. Type of data set: functional, cell-based.
As for `COc1cc(NC(C)CCCn2cc(-c3cc4c([nH]c5ccccc54)c(C)n3)nn2)c2ncccc2c1` (stereo not given), the IC50 is greater than 50 µM.

For `COc1cc(NC(C)CCCn2cc(-c3nccc4c3[nH]c3ccccc34)nn2)c2ncccc2c1` (stereo not given), the IC50 is greater than 50 µM.

On to `COc1cc(NC(C)CCCn2cc(COc3ccc4c(c3)[nH]c3c(C)nccc34)nn2)c2ncccc2c1` (stereo not given), for which the IC50 stood at 7.87 µM.

In the next data set the test system is HCT-116. The data set can be described thus: Antiproliferative activity against human HCT-116 cells assessed as reduction in cell viability incubated for 72 hrs by MTT assay. Type of data set: functional, cell-based. Particulars: HCT-116, 72 h.
As for `COc1cc(NC(C)CCCn2cc(-c3cc4c([nH]c5ccccc54)c(C)n3)nn2)c2ncccc2c1` (stereo not given), the IC50 came out at 18.3 µM.

With `COc1cc(NC(C)CCCn2cc(-c3nccc4c3[nH]c3ccccc34)nn2)c2ncccc2c1` (stereo not given), the IC50 is 10.2 µM.

Consider `COc1cc(NC(C)CCCn2cc(COc3ccc4c(c3)[nH]c3c(C)nccc34)nn2)c2ncccc2c1` (stereo not given), for which the IC50 came to 7.31 µM.

Another data set concerns MCF7. Nature of the data set: Antiproliferative activity against human MCF7 cells assessed as reduction in cell viability incubated for 72 hrs by MTT assay. It is filed as functional, cell-based. Particulars: MCF7, 72 h.
Turning to `COc1cc(NC(C)CCCn2cc(-c3cc4c([nH]c5ccccc54)c(C)n3)nn2)c2ncccc2c1` (stereo not given), the IC50 came out at 14.5 µM.

In the case of `COc1cc(NC(C)CCCn2cc(-c3nccc4c3[nH]c3ccccc34)nn2)c2ncccc2c1` (stereo not given), the IC50 was greater than 50 µM.

In the case of `COc1cc(NC(C)CCCn2cc(COc3ccc4c(c3)[nH]c3c(C)nccc34)nn2)c2ncccc2c1` (stereo not given), the half-inhibitory concentration (IC50) worked out at 5.93 µM.

Tested on in the next data set: not listed separately
The data set can be described thus: Antiproliferative activity against human HEK293T cells assessed as reduction in cell viability incubated for 72 hrs by MTT assay. Type of data set: toxicity, cell-based, HEK-293T.
Conditions: not given
Turning to `COc1cc(NC(C)CCCn2cc(-c3cc4c([nH]c5ccccc54)c(C)n3)nn2)c2ncccc2c1` (stereo not given), the IC50 at 72 h is greater than 50 µM.

In the case of `COc1cc(NC(C)CCCn2cc(-c3nccc4c3[nH]c3ccccc34)nn2)c2ncccc2c1` (stereo not given), the IC50 at 72 h was 25.3 µM.

With `COc1cc(NC(C)CCCn2cc(COc3ccc4c(c3)[nH]c3c(C)nccc34)nn2)c2ncccc2c1` (stereo not given), the half-inhibitory concentration (IC50) at 72 h was determined as 7.62 µM.

Tested on in another data set: not listed separately
The data set can be described thus: Selectivity index, ratio of IC50 for antiproliferative activity against human HEK293T cells to IC50 for antiproliferative activity against human MCF7 cells. Particulars: HEK293T cells versus MCF7 cells, read-out: Ratio IC50. It is filed as toxicity, cell-based.
Regarding `COc1cc(NC(C)CCCn2cc(-c3cc4c([nH]c5ccccc54)c(C)n3)nn2)c2ncccc2c1` (stereo not given), the selectivity ratio is greater than 3.46.

On to `COc1cc(NC(C)CCCn2cc(-c3nccc4c3[nH]c3ccccc34)nn2)c2ncccc2c1` (stereo not given), for which the selectivity ratio is less than 0.51.

On to `COc1cc(NC(C)CCCn2cc(COc3ccc4c(c3)[nH]c3c(C)nccc34)nn2)c2ncccc2c1` (stereo not given), for which the selectivity ratio worked out at 1.28.

In a further data set the test system is Plasmodium falciparum. The data set can be described thus: Antiplasmodial activity against erythrocytic stage of chloroquine-sensitive Plasmodium falciparum 3D7 assessed as inhibition of parasite growth incubated for 3 days by HRP2-ELISA. Type of data set: functional, organism-based. Particulars: 3D7, 72 h.
Turning to `COc1cc(NC(C)CCCn2cc(-c3cc4c([nH]c5ccccc54)c(C)n3)nn2)c2ncccc2c1` (stereo not given), the IC50 was 0.857 µM.

Regarding `COc1cc(NC(C)CCCn2cc(-c3nccc4c3[nH]c3ccccc34)nn2)c2ncccc2c1` (stereo not given), the IC50 worked out at 2.52 µM.

In the case of `COc1cc(NC(C)CCCn2cc(COc3ccc4c(c3)[nH]c3c(C)nccc34)nn2)c2ncccc2c1` (stereo not given), the IC50 worked out at 0.211 µM.

Another data set deals with Plasmodium falciparum. The data set can be described thus: Antiplasmodial activity against erythrocytic stage of chloroquine-resistant Plasmodium falciparum Dd2 assessed as inhibition of parasite growth incubated for 3 days by HRP2-ELISA. Type of data set: functional, organism-based. Particulars: Dd2, 72 h.
For the compound `COc1cc(NC(C)CCCn2cc(-c3cc4c([nH]c5ccccc54)c(C)n3)nn2)c2ncccc2c1` (stereo not given), the IC50 was 0.632 µM.

As to `COc1cc(NC(C)CCCn2cc(-c3nccc4c3[nH]c3ccccc34)nn2)c2ncccc2c1` (stereo not given), the half-maximal inhibitory concentration (IC50) amounted to 4.48 µM.

In the case of `COc1cc(NC(C)CCCn2cc(COc3ccc4c(c3)[nH]c3c(C)nccc34)nn2)c2ncccc2c1` (stereo not given), the IC50 worked out at 0.353 µM.

Tested on in the next data set: not listed separately
Nature of the data set: Selectivity index, ratio of IC50 for antiproliferative activity against human HEK293T cells to IC50 for antiplasmodial activity against erythrocytic stage of chloroquine-sensitive Plasmodium falciparum 3D7. Particulars: read-out: Ratio IC50. It is filed as toxicity, cell-based.
Take `COc1cc(NC(C)CCCn2cc(-c3cc4c([nH]c5ccccc54)c(C)n3)nn2)c2ncccc2c1` (stereo not given): the selectivity ratio was greater than 58.3.

On to `COc1cc(NC(C)CCCn2cc(-c3nccc4c3[nH]c3ccccc34)nn2)c2ncccc2c1` (stereo not given), for which the selectivity ratio was determined as 10.

`COc1cc(NC(C)CCCn2cc(COc3ccc4c(c3)[nH]c3c(C)nccc34)nn2)c2ncccc2c1` (stereo not given): the selectivity ratio was found to be 36.

A further data set relates to Plasmodium falciparum. Nature of the data set: Resistance index, ratio of IC50 for antiplasmodial activity against erythrocytic stage of chloroquine-resistant Plasmodium falciparum Dd2 to IC50 for antiplasmodial activity against erythrocytic stage of chloroquine-sensitive Plasmodium falciparum 3D7. Type of data set: functional.
Conditions: not given
For the compound `COc1cc(NC(C)CCCn2cc(-c3cc4c([nH]c5ccccc54)c(C)n3)nn2)c2ncccc2c1` (stereo not given), the “Ratio IC50” value was found to be 0.74.

Take `COc1cc(NC(C)CCCn2cc(-c3nccc4c3[nH]c3ccccc34)nn2)c2ncccc2c1` (stereo not given): the “Ratio IC50” value was 1.77.

On to `COc1cc(NC(C)CCCn2cc(COc3ccc4c(c3)[nH]c3c(C)nccc34)nn2)c2ncccc2c1` (stereo not given), for which the “Ratio IC50” value was 1.67.

These data come from ChEMBL document CHEMBL5550130, “Discovery of harmiprims, harmine-primaquine hybrids, as potent and selective anticancer and antimalarial compounds” (Bioorg Med Chem, 2024).
